Results taken from PubChem BioAssay (NCI).
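96-well plates; 48 h exposure; 5 concentrations. Endpoints by linear interpolation between flanking doses. Not reached: highest tested concentration assigned. The concentration for 50% growth inhibition is given as GI50. The concentration for full growth arrest is given as TGI.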

What was measured:
Assay in all cases: NCI anticancer screen, dose series, 48 h
[1] = tested on: OVCAR-8 ovarian
[2] = tested on: CCRF-CEM leukemia
[3] = tested on: SK-MEL-2 melanoma
[4] = tested on: HOP-62 NSCLC
[5] = tested on: IGROV1 ovarian
[6] = tested on: HCC-2998 colon
[7] = tested on: HT29 colon
[8] = tested on: MDA-MB-435
[9] = tested on: RPMI-8226 leukemia
[10] = tested on: MCF7 breast
[11] = tested on: SK-OV-3 ovarian
[12] = tested on: K-562 leukemia
[13] = tested on: ACHN renal
[14] = tested on: T-47D breast
[15] = tested on: SR leukemia
[16] = tested on: KM12 colon
[17] = tested on: OVCAR-4 ovarian
[18] = tested on: SK-MEL-28 melanoma
[19] = tested on: EKVX NSCLC
[20] = tested on: HL-60(TB) leukemia
[21] = tested on: OVCAR-3 ovarian
[22] = tested on: COLO 205 colon
[23] = tested on: MOLT-4 leukemia
[24] = tested on: DU-145 prostate
[25] = tested on: SW-620 colon
[26] = tested on: 786-0 renal
[27] = tested on: HS 578T breast
[28] = tested on: M14 melanoma
[29] = tested on: NCI-H460 lung
[30] = tested on: MALME-3M melanoma
[31] = tested on: OVCAR-5 ovarian
[32] = tested on: TK-10 renal
[33] = tested on: SF-539 CNS
[34] = tested on: NCI-H226 lung
[35] = tested on: BT-549 breast
[36] = tested on: CAKI-1 renal
[37] = tested on: NCI-H522 lung
[38] = tested on: NCI-H23 lung
[39] = tested on: SNB-19 CNS
[40] = tested on: U251 CNS
[41] = tested on: SK-MEL-5 melanoma
[42] = tested on: SF-295 CNS
[43] = tested on: HCT-15 colon
[44] = tested on: A549 NSCLC
[45] = tested on: PC-3 prostate
[46] = tested on: HCT-116 colon
[47] = tested on: SN12C renal
[48] = tested on: MDA-MB-231 breast
[49] = tested on: UACC-62 melanoma
[50] = tested on: NCI/ADR-RES ovarian
[51] = tested on: SF-268 CNS
[52] = tested on: SNB-75 CNS
[53] = tested on: A498 renal
[54] = tested on: RXF 393 renal
[55] = tested on: HOP-92 NSCLC
[56] = tested on: LOX IMVI melanoma
[57] = tested on: UACC-257 melanoma
[58] = tested on: UO-31 renal

SMILES: CCc1c2c(nc3ccc(OC(=O)NCc4ccc(B5OC(C)(C)C(C)(C)O5)cc4)cc13)-c1cc3c(c(=O)n1C2)COC(=O)[C@]3(O)CC
- GI50 [1]: 22.8 nM
- TGI [1]: > 100000 nM
- GI50 [2]: < 10 nM
- TGI [2]: > 100000 nM
- GI50 [3]: 790 nM
- TGI [3]: > 22600 nM
- GI50 [4]: < 10 nM
- TGI [4]: 2920 nM
- GI50 [5]: 214 nM
- TGI [5]: > 42700 nM
- GI50 [6]: 250 nM
- TGI [6]: 3560 nM
- GI50 [7]: 120 nM
- TGI [7]: > 21200 nM
- GI50 [8]: 107 nM
- TGI [8]: 2700 nM
- GI50 [9]: 270 nM
- TGI [9]: 3480 nM
- GI50 [10]: < 10 nM
- TGI [10]: > 100000 nM
- GI50 [11]: 28.6 nM
- TGI [11]: 8180 nM
- GI50 [12]: 34.3 nM
- TGI [12]: > 100000 nM
- GI50 [13]: 20.2 nM
- TGI [13]: 1130 nM
- GI50 [14]: < 10 nM
- TGI [14]: > 100000 nM
- GI50 [15]: < 10 nM
- TGI [15]: > 100000 nM
- GI50 [16]: 167 nM
- TGI [16]: > 30100 nM
- GI50 [17]: 392 nM
- TGI [17]: 63700 nM
- GI50 [18]: 577 nM
- TGI [18]: 8900 nM
- GI50 [19]: 758 nM
- TGI [19]: > 81900 nM
- GI50 [20]: < 19.1 nM
- GI50 [21]: 148 nM
- TGI [21]: 3200 nM
- GI50 [22]: 73.4 nM
- TGI [22]: 11000 nM
- GI50 [23]: < 10 nM
- TGI [23]: > 100000 nM
- GI50 [24]: 16.8 nM
- TGI [24]: > 100000 nM
- GI50 [25]: 22.7 nM
- GI50 [26]: 13.6 nM
- TGI [26]: 346 nM
- GI50 [27]: 1140 nM
- TGI [27]: 15900 nM
- GI50 [28]: < 10 nM
- TGI [28]: 104 nM
- GI50 [29]: 14.1 nM
- TGI [29]: 343 nM
- GI50 [30]: 74.1 nM
- TGI [30]: 1310 nM
- GI50 [31]: 287 nM
- TGI [31]: > 24300 nM
- GI50 [32]: 1600 nM
- TGI [32]: > 91400 nM
- GI50 [33]: < 10 nM
- TGI [33]: 77.1 nM
- GI50 [34]: 21.6 nM
- TGI [34]: 635 nM
- GI50 [35]: 52 nM
- TGI [35]: 2740 nM
- GI50 [36]: 16.2 nM
- TGI [36]: 1100 nM
- GI50 [37]: 16.7 nM
- TGI [37]: 3870 nM
- GI50 [38]: 18.1 nM
- TGI [38]: 771 nM
- GI50 [39]: < 10 nM
- TGI [39]: > 100000 nM
- GI50 [40]: < 10 nM
- TGI [40]: > 100000 nM
- GI50 [41]: 35.6 nM
- TGI [41]: 301 nM
- GI50 [42]: 16 nM
- TGI [42]: 3400 nM
- GI50 [43]: 277 nM
- TGI [43]: > 100000 nM
- GI50 [44]: 82.5 nM
- TGI [44]: 8090 nM
- GI50 [45]: 144 nM
- TGI [45]: > 100000 nM
- GI50 [46]: < 10.8 nM
- TGI [46]: > 100000 nM
- GI50 [47]: < 10 nM
- TGI [47]: > 100000 nM
- GI50 [48]: 1590 nM
- TGI [48]: > 84100 nM
- GI50 [49]: < 10 nM
- TGI [49]: 220 nM
- GI50 [50]: 51.1 nM
- TGI [50]: > 100000 nM
- GI50 [51]: < 10 nM
- TGI [51]: 4040 nM
- GI50 [52]: 19.9 nM
- TGI [52]: 448 nM
- GI50 [53]: 14.1 nM
- TGI [53]: 175 nM
- GI50 [54]: 27.9 nM
- TGI [54]: 322 nM
- GI50 [55]: 42 nM
- TGI [55]: 2470 nM
- GI50 [56]: < 10 nM
- TGI [56]: 167 nM
- GI50 [57]: 226 nM
- TGI [57]: 3360 nM
- GI50 [58]: 27.4 nM
- TGI [58]: 294 nM
